According to US9382197B2, “Substituted hydroxamic acids and uses thereof” (Millennium Pharmaceuticals, Inc., priority 2010, dated 2016):

Target: T1, purified human HDAC6 (Homo sapiens, UniProt Q9UBN7)
T1 construct: purchased BPS Bioscience 5006
T1 sequence (Q9UBN7 1-1215): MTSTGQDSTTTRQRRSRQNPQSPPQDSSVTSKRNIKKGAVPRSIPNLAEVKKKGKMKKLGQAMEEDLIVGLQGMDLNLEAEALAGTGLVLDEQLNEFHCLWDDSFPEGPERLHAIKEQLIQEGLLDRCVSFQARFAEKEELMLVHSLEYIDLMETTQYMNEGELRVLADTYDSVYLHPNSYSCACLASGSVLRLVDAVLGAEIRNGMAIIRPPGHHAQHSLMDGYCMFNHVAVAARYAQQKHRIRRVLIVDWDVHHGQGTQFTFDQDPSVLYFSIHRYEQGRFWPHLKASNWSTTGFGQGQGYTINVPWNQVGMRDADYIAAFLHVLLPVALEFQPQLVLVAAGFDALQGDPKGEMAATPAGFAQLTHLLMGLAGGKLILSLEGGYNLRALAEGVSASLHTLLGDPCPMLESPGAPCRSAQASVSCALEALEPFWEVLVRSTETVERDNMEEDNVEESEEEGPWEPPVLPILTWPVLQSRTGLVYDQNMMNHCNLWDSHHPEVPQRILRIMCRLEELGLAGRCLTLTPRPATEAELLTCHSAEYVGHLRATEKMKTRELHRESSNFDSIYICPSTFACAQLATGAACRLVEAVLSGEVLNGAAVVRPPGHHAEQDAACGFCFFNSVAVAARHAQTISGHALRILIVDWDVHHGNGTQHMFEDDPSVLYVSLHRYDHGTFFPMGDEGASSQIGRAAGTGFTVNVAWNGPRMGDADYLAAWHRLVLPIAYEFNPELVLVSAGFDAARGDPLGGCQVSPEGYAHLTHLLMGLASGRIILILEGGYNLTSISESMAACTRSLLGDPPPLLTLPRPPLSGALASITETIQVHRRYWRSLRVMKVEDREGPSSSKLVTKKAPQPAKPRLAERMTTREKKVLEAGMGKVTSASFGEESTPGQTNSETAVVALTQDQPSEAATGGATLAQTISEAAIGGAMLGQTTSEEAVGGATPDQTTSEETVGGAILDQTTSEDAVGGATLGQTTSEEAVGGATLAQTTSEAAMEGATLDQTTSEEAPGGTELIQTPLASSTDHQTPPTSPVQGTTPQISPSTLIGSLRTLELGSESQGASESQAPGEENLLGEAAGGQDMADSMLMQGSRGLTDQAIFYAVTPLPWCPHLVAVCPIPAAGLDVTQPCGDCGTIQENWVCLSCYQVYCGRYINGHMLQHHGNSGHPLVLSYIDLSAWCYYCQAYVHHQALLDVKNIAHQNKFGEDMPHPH
Experiment: HDAC6 Enzyme Assay
Assay type: biochemical
Summary of the method: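 Deacetylated product quantified after trypsin digestion as released AMC (340/460 nm), following a 1 h, 30 °C reaction of human HDAC6 with Ac-RGK(Ac)-AMC peptide, quenched by trichostatin A. IC50 derived from DMSO-normalized curves.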

[1] = purified human HDAC6, substrate Ac-Arg-Gly-Lys(Ac)-AMC, 1 hour at 30° C., reported as bins

In the case of `CC(C)c1ccc(CC(=O)NC(C)c2ccc(C(=O)NO)cc2)cc1` (centres unmarked) [Compound I-285, N-hydroxy-4-(1-{[(4-isopropylphenyl)acetyl]amino}ethyl)benzamide], the IC50 (bin: greater than 1 μM) is reported as greater than 1000 nM.
Work on `CC(C)Cc1cc(C(=O)NC(C)c2ccc(C(=O)NO)cc2)no1` (centres unmarked) [Compound I-286, N-(1-{4-[(hydroxyamino)carbonyl]phenyl}ethyl)-5-isobutylisoxazole-3-carboxamide] yielded an IC50 [1] of less than 100 nM.
In the case of `CC(C)[C@@H](NC(=O)C(C)(C)C)c1ccc(C(=O)NO)cc1` [Compound I-287, 4-{(1R)-1-[(2,2-dimethylpropanoyl)amino]-2-methylpropyl}-N-hydroxybenzamide], the IC50 [1] is reported as less than 100 nM.
With `Cc1cc(C(=O)NC(C)c2ccc(C(=O)NO)cc2)n(C)n1` (centres unmarked) [Compound I-288, N-(1-{4-[(hydroxyamino)carbonyl]phenyl}ethyl)-1,3-dimethyl-1H-pyrazole-5-carboxamide] the IC50 [1] was less than 100 nM.
In the case of `CC(C)C(NC(=O)C(c1ccccc1)C(C)C)c1ccc(C(=O)NO)cc1` (centres unmarked) [Compound I-289, N-hydroxy-4-{2-methyl-1-[(3-methyl-2-phenylbutanoyl)amino]propyl}benzamide], the IC50 (bin: greater than 1 μM) is reported as greater than 1000 nM.
`CC(C)(C)NC(=O)N[C@H](c1ccc(C(=O)NO)cc1)C(F)(F)F` [Compound I-290, 4-((1R)-1-{[(tert-butylamino)carbonyl]amino}-2,2,2-trifluoroethyl)-N-hydroxybenzamide] was tested, and the IC50 [1] was 100 to 500 nM.
With `Cn1nc(C(C)(C)C)cc1C(=O)NC(c1ccc(C(=O)NO)cc1)C(C)(C)C` (centres unmarked) [Compound I-291, 3-tert-butyl-N-(1-{4-[(hydroxyamino)carbonyl]phenyl}-2,2-dimethylpropyl)-1-methyl-1H-pyrazole-5-carboxamide] the IC50 [1] was 100 to 500 nM.
`CC(NC(=O)Cc1ccccc1Cl)c1ccc(C(=O)NO)cc1` (centres unmarked) [Compound I-292, 4-(1-{[(2-chlorophenyl)acetyl]amino}ethyl)-N-hydroxybenzamide] was tested, and the IC50 (bin: greater than 1 μM) was greater than 1000 nM.
`CC(NC(=O)Nc1cccc2nsnc12)c1ccc(C(=O)NO)cc1` (centres unmarked) [Compound I-293, 4-(1-{[(2,1,3-benzothiadiazol-4-ylamino)carbonyl]amino}ethyl)-N-hydroxybenzamide] showed an IC50 [1] of less than 100 nM.
Compound `C[C@H](NC(=O)c1cc2ccccc2n1C)c1cccc(C(=O)NO)c1` [Compound I-294, N-((1S)-1-{3-[(hydroxyamino)carbonyl]phenyl}ethyl)-1-methyl-1H-indole-2-carboxamide] has an IC50 [1] of 100 to 500 nM.
`Cc1cccc(C(=O)NC(C)c2ccc(C(=O)NO)cc2)c1` (centres unmarked) [Compound I-295, N-(1-{4-[(hydroxyamino)carbonyl]phenyl}ethyl)-3-methylbenzamide] was tested, and the IC50 [1] was less than 100 nM.
`O=C(NO)c1ccc([C@H](NC(=O)c2ccc(-c3ccccc3)cc2)C(F)(F)F)cc1` [Compound I-296, N-((1S)-2,2,2-trifluoro-1-{4-[(hydroxyamino)carbonyl]phenyl}ethyl)biphenyl-4-carboxamide] gave an IC50 [1] of less than 100 nM.
`CC(NC(=O)c1ccc2c(c1)OCO2)c1ccc(C(=O)NO)cc1` (centres unmarked) [Compound I-297, N-(1-{4-[(hydroxyamino)carbonyl]phenyl}ethyl)-1,3-benzodioxole-5-carboxamide] gave an IC50 [1] of less than 100 nM.
Compound `CC(NC(=O)C1(c2ccccc2)CCCC1)c1ccc(C(=O)NO)cc1` (centres unmarked) [Compound I-298, N-hydroxy-4-(1-{[(1-phenylcyclopentyl)carbonyl]amino}ethyl)benzamide] has an IC50 [1] of 100 to 500 nM.
Work on `CCC[C@@H](NC(=O)c1cc2ccccc2s1)c1ccc(C(=O)NO)cc1` [Compound I-299, N-((1R)-1-{4-[(hydroxyamino)carbonyl]phenyl}butyl)-1-benzothiophene-2-carboxamide] yielded an IC50 [1] of less than 100 nM.
`CC(C)C(NC(=O)C1(c2ccc(Cl)cc2)CC1)c1ccc(C(=O)NO)cc1` (centres unmarked) [Compound I-300, 4-[1-({[1-(4-chlorophenyl)cyclopropyl]carbonyl}amino)-2-methylpropyl]-N-hydroxybenzamide] was tested, and the IC50 [1] was 100 to 500 nM.
In the case of `C[C@@H](NC(=O)c1cc(Cl)c(Cl)n1C)c1cccc(C(=O)NO)c1` [Compound I-301, 4,5-dichloro-N-((1R)-1-{3-[(hydroxyamino)carbonyl]phenyl}ethyl)-1-methyl-1H-pyrrole-2-carboxamide], the IC50 [1] is reported as 100 to 500 nM.
